This is an account of results in PMC5630632, “Assessing inhibitors of mutant isocitrate dehydrogenase using a suite of pre-clinical discovery assays” (Scientific Reports, 2017).

Positions count from the first letter of the chain named. Converted amounts (≈) assume the structure as drawn. Read-outs that look alike come from different tables or passages of the source.

Series [1] in a line: High-throughput kinetic solubility (µSOL), pH 7.4. It counts as physicochemical. The following applies: aqueous solution pH 7.4, pH 7.4, aqueous buffer, kinetic from dmso stock; read-out: HT Kinetic Solubility, Solubility. The procedure:
High-Throughput kinetic solubility test assay
Pion’s patented µSOL assay for kinetic solubility determination was used. In this assay, the classical saturation shake- flask solub ility method was adapted to a 96-well microtiter plate format and a co-solvent method with n- propanol as the […] was utilized. Test compounds were prepared in 10 mM DMSO solutions (45 µ L), and diluted with the co-solve nt to a final drug conce ntration of […]
Samples are incubated at room temperature for 6 hrs t o achieve equilibrium. The samples were then filtered to remove any precipitate formed. The concentrat ion of the compound in the filtrate was measured by UV ab sorbance. […]
used for quantitation of unknown drug concent ration in filtrate. Spectroscopically pure 1- Propanol was used as acosolvent to suppress precipitation in the reference

Series [2] in a line: High-throughput PAMPA (GIT), pH 7.4. The following applies: read-out: HT PAMPA Permeability. It counts as in vitro ADME. The source says:
In Vitro Physicochemical and Drug Metabolism Studies:
High-Throughput PAMPA assay
The stirring double- sin k PAMPA method patented by pION Inc. (Billeri ca, MA) was employed to determine the permeability of compounds via PAMPA passive diffusion. The PAMPA lipid membrane consisted of an artificial membrane of a proprietary lipid mixture and dodecane (Pion Inc.), optimized to predict gastrointestinal tract (GIT) passive diffusion permeability, was immobilized on a plastic matrix of a 96 well “donor” filter plate placed above a 96 well “a cceptor” plate. A pH 7.4 solution was used in both donor and acceptor wells. The test articles, stocked in 10 mM DMSO solutions, were diluted to 0.05 mM in aqueous buffer (pH 7.4) , and the concentration of DMSO was 0.5% in the final solution. During the 30-min permeation period at room temperature, the test samples in the donor compartment were stirred using the Gutbox te chnology (Pion Inc.) to reduce the unstirred water layer. The test article concentrations in the donor and acceptor compartments were measured using an UV plate reader (Nano Quant, Infinite 200 […]
PRO, Tecan Inc., Männedorf, Switzerland). Permeability calculations were performed using Pion Inc. software and were expressed in units of 10-6 cm/s. […]

Series [3] in a line: Microsomal metabolic stability, mouse. It counts as in vitro ADME. Particulars: pH 7.4; mouse liver microsomes.
Series [4] is described as follows: Microsomal metabolic stability, rat. The series is classed as in vitro ADME. Particulars: pH 7.4; rat liver microsomes.
A short description of series [5]: Microsomal metabolic stability, human. It counts as in vitro ADME. Particulars: pH 7.4; human liver microsomes.
Series [6] in a line: Human plasma protein binding (rapid equilibrium dialysis, Cyprotex). It counts as in vitro ADME. Particulars: for fraction unbound at 4 h, 5 µM: human, plasma, human plasma.
The target of series [7] is T1, hERG channel (Homo sapiens, UniProt Q12809).
T1 construct: host or cells: U2OS cells (ATCC)
The experiment in a line: hERG FluxOR-based thallium flux assay. It counts as cell-based. Particulars: In Vitro Toxicity.

Series [8] can be described thus: in vitro. The following applies: human, Caco-2.
Series [9] is described as follows: Human hepatocyte cytotoxicity (CellTiter-Glo, 72 hr). The following applies: both, human, cryopreserved human hepatocytes.
Series [10] has as its system human hepatocytes. The series is described as above. The following applies: Homo sapiens, Hepatocyte, read-out: Human Hepatocytes EC50.
Series [11] addresses IDH1 WT (Homo sapiens, UniProt O75874). Nature of the series: Wild type IDH1 enzyme assay, diaphorase/resazurin coupled. The following applies: for Emax: read-out: IDH1 WT % EMax.
Series [12] deals with T2, IDH2 WT (Homo sapiens, UniProt P48735).
T2 sequence (P48735 40-452): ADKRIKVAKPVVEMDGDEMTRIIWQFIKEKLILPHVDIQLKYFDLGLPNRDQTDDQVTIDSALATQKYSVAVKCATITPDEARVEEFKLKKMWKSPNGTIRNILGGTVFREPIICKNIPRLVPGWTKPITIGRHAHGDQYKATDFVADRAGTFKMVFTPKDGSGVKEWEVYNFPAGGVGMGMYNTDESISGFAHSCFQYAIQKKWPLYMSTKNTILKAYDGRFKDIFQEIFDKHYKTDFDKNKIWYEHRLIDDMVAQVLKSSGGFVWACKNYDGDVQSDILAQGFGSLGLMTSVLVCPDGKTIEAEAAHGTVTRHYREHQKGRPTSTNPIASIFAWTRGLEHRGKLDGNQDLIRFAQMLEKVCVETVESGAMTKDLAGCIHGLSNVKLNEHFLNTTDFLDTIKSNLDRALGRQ
Nature of the series: Wild type IDH2 enzyme assay, diaphorase/resazurin coupled.

For series [13], the target named is T3, R172Q mIDH2 (Homo sapiens, UniProt P48735, R172Q).
T3 sequence (P48735 40-452 R172Q): T2 sequence (P48735 40-452) with R133Q
Nature of the series: mIDH2-R172Q enzyme assay (Reaction Biology), diaphorase/resazurin coupled. The following applies: for Emax: read-out: IDH2 R172Q % EMax.

Series [14] concerns RBE (R132S) cells. The experiment in a line: 2-HG production, monolayer (2D), mass spectrometry, RBE. It counts as cell-based. Particulars: Homo sapiens, mass spec; for Emax: read-out: 2D Cellular 2HG Production (Mass Spec) RBE (R132S) % EMax; for EC50: read-out: 2D Cellular 2HG Production (Mass Spec) RBE (R132S) EC50. As for the experimental part:
(§1) (Supplementary Table 2). Inhibition of the target was assessed by quantitative measurement of 2-HG levels in extracellular media of monolayer (or 2-dimentional, 2D) cultures following incubation (48 hrs) with inhibitors. […]
(§2) treated 96-well plates (Corning) at a density of 8000 cells/well/100 μL . Plates were sealed with gas permeable membranes (Research Products International Corp.) and incubated at 37°C, 5% CO2, 90% RH for 24 hr. Growth media was subsequently aspirated and replaced with 100 μL of a solution of growth media cont aining either vehicle DMSO or indicated mIDH1 inhibitor. Each compound was tested as an 8-point dilution series ranging from 5 μM to 2.3 nM. After 48 hr treatment, 75 μL of the exhausted media was collected and snap frozen on dry ice. Samples were analyzed by LC-MS for 2- HG concentrations using Rapidfire / Mass Spectrometry (Quintara) (4) . Remaining cells were assessed for viability by adding 100 μL of fresh media and 50 μL of CellTiter-Glo reagent (Promega) as per manufacturer instructions. Luminescence was read using a Vi ewLux High-throu ghpu t CCD imager (PerkinElmer) equipped with clear filters.

Series [15] deals with JJ012 (R132G) cells. The experiment in a line: 2-HG production, monolayer (2D), mass spectrometry, JJ012. The series is classed as cell-based. The following applies: Homo sapiens, mass spec; for Emax: read-out: 2D Cellular 2HG Production (Mass Spec) JJ012 (R132G) % EMax; for EC50: read-out: 2D Cellular 2HG Production (Mass Spec) JJ012 (R132G) EC50. The procedure:
as §1, §2

The subject of series [16] is JJ012 (R132G) 3D cellular spheroids. Nature of the series: 2-HG production, spheroids (3D), JJ012. The series is classed as cell-based. The following applies: Homo sapiens; 3D spheroid, mass spec. The source says:
(§3) To evaluate the effect of mIDH1 inhibitors in more relevant models of solid tumors, we adapted a 3-dimensional (3D) multicellular tumor spheroid assay to monitor spheroid formation and 2-HG production. Small molecules can have diminished efficacy in multicellular tumor spheroid models due to limited penetration and the heterogeneous nature of the 3D tumor spheroid[39],[40]. We began by testing the 6 aforementioned cell lines for their ability to form spheroids in ultra-low attachment plates at varying cell concentrations (1000–5000 cells/well). […] Overall, spheroids produced less extracellular 2-HG than cells cultured in monolayer (Fig. 7B).
(§4) Using these simple 3D models of solid tumors, we assessed the ability of inhibitors to reduce 2-HG production.
(§5) 2-HG production: Cells grown as spheroids (3D)
(§6) (RBE) cells/well/150 μ L to form spheroids. Of note, we were not able to obtain spheroids using SNU1079 cells. Plates were sealed with gas permeable membranes, centrifuged at 40 rcf for 1 min, and incubated at 37°C, 5% CO2, 90% RH for 96 (HT108 0, U87 and JJ01 2) or 4 8 (RBE) h r. Cells were washed (by remo ving 10 0 μL of exhausted media and re placing it with 100 μL of growth media, twice) and treated with 50 μL of a solution of media containing the indicated compounds. Each compound was tested as an 8-point dilution series ranging from 5 μM to 2.3 nM.
(§7) After 96 hr of t reatment, 100 μL of the exhausted media was collected and snap frozen on dry ice. Samples were analyzed by LC -MS for 2- HG concentrations using Rapidfire /Mass Spectrometry (Quintara) ( 4) . Plates were first imaged on the Celigo Imaging Cytometer (Ne xcelom Bioscience) to quantify area of each spheroid. Cell viability was subsequently measured using the CellTiter-Glo assay with some modifications: 50 μL of a solution of CellTiter-Glo reagent containing a final concentration of 0.025 % Trypsin (Thermo Sci entific) was added to each well and plates were shaken at 500 rpm for 30 min before reading.

The subject of series [17] is RBE (R132S) 3D cellular spheroids. Nature of the series: 2-HG production, spheroids (3D), RBE. The series is classed as cell-based. Particulars: Homo sapiens; 3D spheroid, mass spec.
Description: as §3, §4, §5, §6, §7

IDH1 WT, sequence (O75874 whole entry): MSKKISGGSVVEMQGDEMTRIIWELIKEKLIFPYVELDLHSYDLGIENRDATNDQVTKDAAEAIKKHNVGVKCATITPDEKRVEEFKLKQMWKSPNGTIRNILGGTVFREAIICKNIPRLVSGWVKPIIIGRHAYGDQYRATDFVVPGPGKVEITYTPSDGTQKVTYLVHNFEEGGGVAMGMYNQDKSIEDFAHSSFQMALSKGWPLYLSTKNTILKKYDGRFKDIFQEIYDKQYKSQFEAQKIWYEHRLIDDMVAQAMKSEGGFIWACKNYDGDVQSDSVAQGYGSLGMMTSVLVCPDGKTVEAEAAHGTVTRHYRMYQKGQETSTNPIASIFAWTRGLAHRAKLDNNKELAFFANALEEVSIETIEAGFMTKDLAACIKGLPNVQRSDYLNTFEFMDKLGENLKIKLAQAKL
T1 sequence (Q12809 whole entry): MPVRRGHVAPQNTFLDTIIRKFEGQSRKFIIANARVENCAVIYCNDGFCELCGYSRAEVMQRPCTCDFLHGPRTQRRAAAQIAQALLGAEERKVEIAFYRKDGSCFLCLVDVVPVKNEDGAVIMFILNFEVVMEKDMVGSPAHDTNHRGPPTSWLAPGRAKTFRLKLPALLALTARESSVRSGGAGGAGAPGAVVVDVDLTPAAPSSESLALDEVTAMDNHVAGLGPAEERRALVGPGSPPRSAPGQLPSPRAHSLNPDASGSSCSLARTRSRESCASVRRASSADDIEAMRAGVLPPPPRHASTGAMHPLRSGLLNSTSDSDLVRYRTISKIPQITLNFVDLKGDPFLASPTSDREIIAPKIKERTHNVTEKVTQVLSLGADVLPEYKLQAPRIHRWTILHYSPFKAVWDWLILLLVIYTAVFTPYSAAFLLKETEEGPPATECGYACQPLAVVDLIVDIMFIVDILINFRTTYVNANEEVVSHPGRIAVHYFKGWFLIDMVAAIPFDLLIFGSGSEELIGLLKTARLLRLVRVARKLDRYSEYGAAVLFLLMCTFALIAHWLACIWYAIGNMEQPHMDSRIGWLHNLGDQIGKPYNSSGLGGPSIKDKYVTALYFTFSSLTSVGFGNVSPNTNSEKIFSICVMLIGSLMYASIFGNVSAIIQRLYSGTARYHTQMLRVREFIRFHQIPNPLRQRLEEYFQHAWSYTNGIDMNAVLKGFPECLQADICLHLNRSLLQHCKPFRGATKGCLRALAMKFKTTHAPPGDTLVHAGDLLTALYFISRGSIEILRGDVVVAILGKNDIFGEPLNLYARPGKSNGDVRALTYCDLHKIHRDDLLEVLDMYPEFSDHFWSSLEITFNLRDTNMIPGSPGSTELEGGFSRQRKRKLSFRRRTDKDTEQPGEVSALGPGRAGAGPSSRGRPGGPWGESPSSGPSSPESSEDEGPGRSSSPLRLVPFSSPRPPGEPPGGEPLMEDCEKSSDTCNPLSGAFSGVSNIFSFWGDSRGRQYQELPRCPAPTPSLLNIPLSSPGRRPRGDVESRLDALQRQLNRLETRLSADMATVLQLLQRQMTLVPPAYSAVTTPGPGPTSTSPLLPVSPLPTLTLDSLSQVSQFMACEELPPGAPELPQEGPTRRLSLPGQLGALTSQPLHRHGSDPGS

Take `CC(C)(O)CNc1nc(Nc2ccnc(C(F)(F)F)c2)nc(-c2cccc(C(F)(F)F)n2)n1` [AG-221, Enasidenib]: in [1], the solubility (kinetic) at 6 h amounted to 14.2 µM (≈ 6.72 µg/mL). Also, in series [2], the Papp at 30 min, 0.05 mM turned out to be 1310 ×10⁻⁶ cm/s. Moreover, the half-life at 1 µM in series [3], in series [4] and in series [5] was above 2 h in each case. Moreover, the fraction unbound at 4 h, 5 µM in series [6] (read-out: Human Plasma Protein Binding % Bound (converted)) is 0.006; in series [6] (read-out: Human Plasma Protein Binding % Unbound), 0.00637. Besides, the EC50 in [7] is above 30 µM; in [10] it was 18.4 µM; in series [11] (IDH1 WT EC50, Biochemical), 15.1 µM; in series [12], above 30 µM; in [13] it was 0.044 µM. Moreover, the Emax was 33.2% in series [7] (human, U2OS cells transduced with hERG-BacMam virus); 57.7% in series [11]; 83.4% in [12] (read-out: IDH2 % EMax); 87.2% in series [13]. This compound came in with a Papp A→B at 2 h, 10 µM in series [8] of 9.41 ×10⁻⁶ cm/s. In [8], this compound returned a Papp B→A at 2 h, 10 µM of 23.8 ×10⁻⁶ cm/s. The efflux ratio at 2 h, 10 µM in series [8] was 2.54. The Emax at 72 h in series [9] is 84.8%. This compound displayed an IC50 in series [13] of 0.065 µM.

For the compound `CC(C)[C@H]1COC(=O)N1c1ccnc(N[C@@H](C)c2ccc(CN3CCC(F)(F)CC3)cc2)n1` [Novartis 224], the Emax amounted to 109% in series [14]; 68% in series [15]; 87.2% in [16]; 86.3% in series [17]; 19.4 ± 11.4% in series [12] (read-out: IDH2 WT % EMax); 3.4% in series [13]. The EC50 is 0.221 µM in [14]; 0.121 µM in [15]; 0.098 µM in [16]; 0.412 µM in series [17]; above 30 µM in series [12]; above 30 µM in series [13].

Take `CC(C)[C@H]1COC(=O)N1c1ccnc(N[C@@H](C)c2ccc(C(=O)NC3CCCC3)c(Cl)c2)n1` [Novartis 530]: the Emax in series [14] was found to be 88.2%; in series [15], 70.5%; in series [16], 92.4%; in [17], 86.9%; in series [11], 102 ± 5.8%; in series [12] (read-out: IDH2 WT % EMax), 17.3 ± 4.4%. For the same compound, the Emax in [13] turned out to be 3.9%. The EC50 in [14] amounted to 0.078 µM; in [15] it was 0.076 µM; in series [16] it was 0.069 µM; in series [17], 0.571 µM; in series [11] (IDH1 WT EC50, Biochemical) it was 3.5 µM; in series [11] (IDH1 WT EC50, purified enzyme) it was 3.51 ± 0.17 µM. Moreover, the EC50 in series [12] and in series [13] was above 30 µM throughout.

Consider `CC(=O)N1CCN(Cc2ccc([C@H](C)Nc3nccc(N4C(=O)OC[C@@H]4C(C)C)n3)cc2)CC1` [Novartis 556], for which the “unbound fraction in human plasma” value in [6] (5 µM) is given as ~ 10 % unbound. In addition, the EC50 in series [11] (IDH1 WT EC50, purified enzyme) is 10.5 ± 1.01 µM; in [12], above 30 µM. Also, the values for the Emax in [11] and in series [12] (read-out: IDH2 WT % EMax) were 90 ± 7.4% and 20.7 ± 5.4%, respectively.

For `CC(C)(C)CC(C)(C)c1cc(Cn2ccnc2)c(O)c(Cn2ccnc2)c1` [Sanofi 1], the Emax in [14] stood at 29.3%; in series [15], 28.8%; in [16], 35.3%; in series [17], 47.3%; in series [11], 18.8 ± 2.2%; in series [12] (read-out: IDH2 % EMax), 26.7%. The Emax in series [12] (read-out: IDH2 WT % EMax) came out at 19.9 ± 8%; in series [13] it was 3.2%. For the same compound, the EC50 in [14], in [15], in series [16], in series [17], in series [12] and in series [13] was above 30 µM throughout.
